The target of assay [1] is human recombinant Aurora B (Homo sapiens (Human), UniProt Q96GD4). The assay is described as follows: Aurora B Kinase Biochemical Assay (ADP-Glo). To be noted: ratio of Aurora B IC50 to PLK4 IC50 (selectivity). In a few lines:
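Recombinant human Aurora B (20 nM in pH 7.5 HEPES buffer with MgCl2, EGTA, DTT, Brij-35, BSA) preincubated with compound 15 min at RT. ADP formed quantified by ADP-Glo luminescence after ATP depletion (40 min) and detection (30 min). IC50 from four-parameter non-linear regression.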

The target of assay [2] is human recombinant Aurora A (Homo sapiens (Human), UniProt O14965). The assay is described as follows: Aurora A Kinase Biochemical Assay (ADP-Glo). The note with it: ratio of Aurora A IC50 to PLK4 IC50 (selectivity). In general terms: ADP-Glo turns the ADP formed in a reaction into a luminescent signal.
Chain of human recombinant Aurora A (O14965 whole entry): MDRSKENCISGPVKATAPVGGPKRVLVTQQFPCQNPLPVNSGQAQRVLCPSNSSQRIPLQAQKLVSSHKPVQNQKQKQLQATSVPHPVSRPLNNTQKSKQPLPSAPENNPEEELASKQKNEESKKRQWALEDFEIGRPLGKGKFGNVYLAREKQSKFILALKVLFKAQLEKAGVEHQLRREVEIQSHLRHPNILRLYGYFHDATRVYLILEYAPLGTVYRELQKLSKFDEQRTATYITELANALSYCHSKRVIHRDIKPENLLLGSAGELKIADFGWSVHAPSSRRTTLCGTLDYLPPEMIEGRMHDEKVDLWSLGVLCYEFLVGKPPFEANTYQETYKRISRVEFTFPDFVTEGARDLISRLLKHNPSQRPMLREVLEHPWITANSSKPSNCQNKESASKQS
Assay [3] concerns CHP-134 cells. Briefly: CHP134 CellTiter-Glo (CTG) Assay. It counts as cell-based. To be noted: Homo sapiens, CHP-134, 120 h, 5 days, viable cells by CellTiter-Glo. In a few lines: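 CHP-134 cells seeded at 200 cells/well for 16 h, then given nine 1:3 serial dilutions in quadruplicate at 37° C, 5% CO2. Viable cells measured by CellTiter-Glo luminescence after 5 days; IC50 calculated from curves.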
Background: Cellular ATP, detected with luciferase, serves as a proxy for viable cell number.

In assay [4] the target is human recombinant PLK4 (Homo sapiens (Human), UniProt O00444). Briefly: PLK4 Biochemical Assay (ADP-Glo). The note with it: 0.5 nM PLK4, 8.0 µM ATP, 4.7 µM MBP, 6 hours at RT. In a few lines:
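Recombinant human PLK4 (added at 1.0 nM) was preincubated 15 min at RT with compound in 50 mM HEPES pH 7.5, 10 mM MgCl2, 1 mM EGTA, 1 mM DTT, 0.01% Brij-35, 0.01% BSA. ADP formed was detected by ADP-Glo luminescence (40 min ATP depletion, 30 min detection). IC50 came from a four-parameter fit.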

The source of these data is patent publication US20230365537A1, “POLO LIKE KINASE 4 INHIBITORS” (ORIC Pharmaceuticals, Inc., priority 2021, published 2023).

Chain of human recombinant PLK4 (O00444 whole entry): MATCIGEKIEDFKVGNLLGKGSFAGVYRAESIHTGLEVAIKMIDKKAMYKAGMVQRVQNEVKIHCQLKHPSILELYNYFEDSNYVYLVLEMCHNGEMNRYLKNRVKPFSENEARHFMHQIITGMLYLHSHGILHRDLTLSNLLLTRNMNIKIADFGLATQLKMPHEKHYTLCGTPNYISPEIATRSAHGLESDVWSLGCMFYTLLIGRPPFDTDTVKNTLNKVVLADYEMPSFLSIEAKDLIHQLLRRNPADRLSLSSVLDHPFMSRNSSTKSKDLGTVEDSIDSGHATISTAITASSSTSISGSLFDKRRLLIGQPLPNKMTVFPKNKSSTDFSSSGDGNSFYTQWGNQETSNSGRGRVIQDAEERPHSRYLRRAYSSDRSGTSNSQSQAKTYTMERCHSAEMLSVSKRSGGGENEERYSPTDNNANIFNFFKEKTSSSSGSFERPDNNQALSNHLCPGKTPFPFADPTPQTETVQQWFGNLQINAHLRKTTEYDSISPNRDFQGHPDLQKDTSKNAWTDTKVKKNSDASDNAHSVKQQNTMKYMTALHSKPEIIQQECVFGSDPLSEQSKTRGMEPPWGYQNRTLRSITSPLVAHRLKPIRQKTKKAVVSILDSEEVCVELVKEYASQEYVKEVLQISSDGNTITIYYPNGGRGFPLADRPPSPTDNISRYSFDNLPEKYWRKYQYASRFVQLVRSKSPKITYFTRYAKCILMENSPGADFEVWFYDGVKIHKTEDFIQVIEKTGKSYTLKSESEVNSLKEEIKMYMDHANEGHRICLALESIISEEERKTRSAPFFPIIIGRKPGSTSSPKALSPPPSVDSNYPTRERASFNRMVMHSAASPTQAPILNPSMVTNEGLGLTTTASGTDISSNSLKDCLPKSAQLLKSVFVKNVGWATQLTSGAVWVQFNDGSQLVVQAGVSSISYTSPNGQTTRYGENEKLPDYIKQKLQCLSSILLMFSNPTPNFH
Chain of human recombinant Aurora B (Q96GD4 whole entry): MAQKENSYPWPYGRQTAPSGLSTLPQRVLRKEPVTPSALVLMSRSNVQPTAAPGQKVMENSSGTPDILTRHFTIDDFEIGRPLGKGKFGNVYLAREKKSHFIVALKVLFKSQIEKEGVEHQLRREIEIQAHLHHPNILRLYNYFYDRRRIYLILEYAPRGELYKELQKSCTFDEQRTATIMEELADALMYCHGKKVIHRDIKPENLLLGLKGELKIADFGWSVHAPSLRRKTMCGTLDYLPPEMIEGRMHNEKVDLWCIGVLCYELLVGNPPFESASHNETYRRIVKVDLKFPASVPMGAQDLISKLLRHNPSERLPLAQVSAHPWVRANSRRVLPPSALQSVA

With `CCS(=O)(=O)c1ccc(Nc2n[nH]c3cc([C@@H]4C[C@@]45C(=O)Nc4ccc(OC)cc45)ccc23)c(OC)n1` [Example 209, (1R,2S)-2-(3-{[6-(ethanesulfonyl)-2-methoxypyridin-3-yl]amino}-1H-indazol-6-yl)-5′-methoxyspiro[cyclopropane-1,3′-indol]-2′(1′H)-one], the “[Aurora B IC50 (nM)]/[PLK4 IC50 (nM)]” value in assay [1] is 254.6519. Also, in assay [2], the “[Aurora A IC50 (nM)]/[PLK4 IC50 (nM)]” value worked out at 273.2595. The IC50 (in general, the concentration at which inhibition is half-maximal) in assay [3] turned out to be 606 nM; in assay [4], 1.54 nM.

For `CNS(=O)(=O)c1cc(OC)c(Nc2n[nH]c3cc([C@@H]4C[C@@]45C(=O)Nc4ccc(OC)cc45)ccc23)cc1C` [Example 210, 5-methoxy-4-({6-[(1R,2S)-5′-methoxy-2′-oxo-1′,2′-dihydrospiro[cyclopropane-1,3′-indol]-2-yl]-1H-indazol-3-yl}amino)-N,2-dimethylbenzene-1-sulfonamide], the “[Aurora B IC50 (nM)]/[PLK4 IC50 (nM)]” value in assay [1] stood at 316.5430. Moreover, the “[Aurora A IC50 (nM)]/[PLK4 IC50 (nM)]” value in assay [2] stood at 462.3887. Also, the values for the half-inhibitory concentration (IC50) in assay [3] and in assay [4] were 65.5 nM and 1.35 nM, respectively.

On to `COc1ccc2c(c1)[C@]1(C[C@H]1c1ccc3c(Nc4cc(OC)c(S(N)(=O)=O)cc4OC)n[nH]c3c1)C(=O)N2` [Example 212, 2,5-Dimethoxy-4-({6-[(1R,2S)-5′-methoxy-2′-oxo-l′,2′-dihydrospiro[cyclopropane-1,3′-indol]-2-yl]-1H-indazol-3-yl}amino)benzene-1-sulfonamide], for which the “[Aurora B IC50 (nM)]/[PLK4 IC50 (nM)]” value in assay [1] is 280. In addition, the “[Aurora A IC50 (nM)]/[PLK4 IC50 (nM)]” value in assay [2] is 353.1230. In addition, the IC50 is 161 nM in assay [3] and 1.58 nM in assay [4].

In the case of `COc1ccc2c(c1)[C@]1(C[C@H]1c1ccc3c(Nc4nc(N(C)C)nc5c4CCC5)n[nH]c3c1)C(=O)N2` [Example 213, (1R,2S)-2-(3-{[2-(dimethylamino)-6,7-dihydro-5H-cyclopenta[d]pyrimidin-4-yl]amino}-1H-indazol-6-yl)-5′-methoxyspiro[cyclopropane-1,3′-indol]-2′(1′H)-one], the “[Aurora B IC50 (nM)]/[PLK4 IC50 (nM)]” value in assay [1] is given as 225.3871. In addition, in assay [2], the “[Aurora A IC50 (nM)]/[PLK4 IC50 (nM)]” value is recorded as 92.2102. Also, the results for the IC50 in assay [3] and in assay [4] were 190 nM and 2.13 nM, respectively.

On to `CCOc1nc(C(=O)N(C)C)ccc1Nc1n[nH]c2cc([C@@H]3C[C@@]34C(=O)Nc3ccc(OC)cc34)ccc12` [Example 214, 6-ethoxy-5-({6-[(1R,2S)-5′-methoxy-2′-oxo-1′,2′-dihydrospiro[cyclopropane-1,3′-indol]-1-yl]-1H-indazol-3-yl}amino)-N,N-dimethylpyridine-2-carboxamide], for which the “[Aurora B IC50 (nM)]/[PLK4 IC50 (nM)]” value in assay [1] came out at 59.0999. Also, the “[Aurora A IC50 (nM)]/[PLK4 IC50 (nM)]” value in assay [2] is 953. For the same molecule, the IC50 in assay [3] stood at 32.2 nM; in assay [4], 1.01 nM.

On to `COc1ccc2c(c1)[C@]1(C[C@H]1c1ccc3c(Nc4ccc(N5CCCC5=O)nc4OC)n[nH]c3c1)C(=O)N2` [Example 215, (1R,2S)-5′-methoxy-2-(3-{[2-methoxy-6-(2-oxopyrrolidin-1-yl)pyridin-3-yl]amino}-1H-indazol-6-yl)spiro[cyclopropane-1,3′-indol]-2′(1′H)-one], for which the “[Aurora B IC50 (nM)]/[PLK4 IC50 (nM)]” value in assay [1] worked out at 53.57. In addition, in assay [2], the “[Aurora A IC50 (nM)]/[PLK4 IC50 (nM)]” value is recorded as 986.6539. Further, the IC50 came to 192 nM in assay [3] and 2.1 nM in assay [4].

Regarding `COc1ccc2c(c1)[C@]1(C[C@H]1c1ccc3c(Nc4cc(S(=O)(=O)N5CCOCC5)ccc4OC)n[nH]c3c1)C(=O)N2` [Example 216, (1R,2S)-5′-methoxy-2-{3-[2-methoxy-5-(morpholine-4-sulfonyl)anilino]-1H-indazol-6-yl}spiro[cyclopropane-1,3′-indol]-2′(1′H)-one], the “[Aurora B IC50 (nM)]/[PLK4 IC50 (nM)]” value in assay [1] is 18601.19048. Besides, in assay [2], the “[Aurora A IC50 (nM)]/[PLK4 IC50 (nM)]” value was 7712. Moreover, the figures for the IC50 in assay [3] and in assay [4] were 766 nM and 2.69 nM, respectively.
